Measured values published in US20200069679A1, “NINTEDANIB FOR USE IN METHODS FOR THE TREATMENT OF INTERSTITIAL LUNG DISEASES BY COADMINISTRATION WITH OLADATEROL” (Boehringer Ingelheim International GmbH, priority 2016, published 2020).

System: TGF-β induced ET-1 release in cultured human lung fibroblasts (IPF-HLF)
Assay: TGF-β induced ET-1 release in cultured human lung fibroblasts from IPF patients (ELISA of supernatant)
Type: cell-based
Conditions: IPF-HLF stimulated with TGF-β for 48 h, n=6 incubations, normalized to unstimulated (=100% inhibition) and TGF-β-stimulated (=0% inhibition) ET-1 levels
Protocol: The principle of the assay is the incubation of IPF-HLF with transforming growth factor beta (TGF-β) for 48 h. In the cell culture supernatant the concentration of the pro-fibrotic mediator endothelin-1 (ET-1) was determined by enzyme linked immune sorbent assay.
HLFs from 5 different patients with idiopathic pulmonary fibrosis (IPF) were used to do repeated measurements. For the control groups without TGF-β stimulation, data sets from 11 incubations were included and for TGF-β-stimulated fibroblasts data sets from 12 incubations were included. For all olodaterol and/or nintedanib-treated groups, n=6 incubations were conducted. The experiments were conducted in the presence of nintedanib at 30 nM concentration and/or olodaterol at 1 pM (FIG. 1), 10 pM (FIG. 2) and 100 pM (FIG. 3) concentrations, respectively.

Structure (SMILES)	reduction of ET-1 release (nintedanib at 30 nM)	reduction of ET-1 release (olodaterol at 1-100 pM)
COC(=O)c1ccc2c(c1)NC(=O)/C2=C(\Nc1ccc(N(C)C(=O)CN2CCN(C)CC2)cc1)c1ccccc1 [nintedanib]	7%	
COc1ccc(CC(C)(C)NC[C@H](O)c2cc(O)cc3c2OCC(=O)N3)cc1 [olodaterol]		1%-47%
